The values below come from ChEMBL document CHEMBL1127948, “Synthesis and in vitro cytotoxicity of diastereoisomerically modified dolastatin 15 analogues” (Bioorg Med Chem Lett, 1994).

As a reminder, the IC50 is the concentration needed to halve the response being measured. Read a high IC50 as weaker potency.

One experiment concerns L1210. Briefly: In vitro growth factor-independent proliferation against murine leukemia L1210 was determined. In kind it is functional, cell-based, Mus musculus.
For another experiment, the system named is Jurkat. Nature of the experiment: In vitro growth factor-independent proliferation against human leukemia T cell line jurkat was determined. In kind it is functional, cell-based.
A further experiment concerns CTLL. Briefly: In vitro interleukin-2-dependent proliferation of the murine cytotoxlc T cell line (CTLL) was determined. In kind it is functional, cell-based, Mus musculus.
A further experiment has as its system Osteoclast-like. Briefly: In vitro growth factor-dependent proliferation against murine bone marrow cell was determined. In kind it is functional, cell-based, Mus musculus.
The next experiment deals with Lymphoma cell line. Briefly: Antiproliferative effect against human lymphoma cells was determined; (0.012 to 0.12 nM). In kind it is functional, cell-based.
The subject of experiment [1] is Panel leukemia (Carcinoma cell lines). Briefly: Antiproliferative effect against continuous human leukemia cell lines and peripheral blood cells from patients with acute myeloid leukemia was determined; (0.1 to 1 nM). In kind it is functional, cell-based.

Molecules are shown by their SMILES.

For the molecule `COC1=CC(=O)N(C(=O)[C@H](OC(=O)[C@@H]2CCCN2C(=O)[C@@H]2CCCN2C(=O)[C@H](C(C)C)N(C)C(=O)[C@@H](NC(=O)[C@H](C(C)C)N(C)C)C(C)C)C(C)C)[C@H]1Cc1ccccc1` (stereo in doubt; form 1), the IC50 in the experiment with L1210 (Mus musculus, L1210) stood at 0.3 nM; in the experiment on Jurkat it was 10 nM; in the experiment on CTLL (Mus musculus, CTLL) it was 8 nM; with Osteoclast-like (Mus musculus, Osteoclast-like), 40 nM.
With `COC1=CC(=O)N(C(=O)[C@@H](OC(=O)[C@@H]2CCCN2C(=O)[C@@H]2CCCN2C(=O)[C@H](C(C)C)N(C)C(=O)[C@@H](NC(=O)[C@H](C(C)C)N(C)C)C(C)C)C(C)C)[C@H]1Cc1ccccc1` [DOLASTATIN 15], the IC50 with L1210 (Mus musculus, L1210) is 0.15 nM; in the experiment on Jurkat, 5 nM; in the experiment with CTLL (Mus musculus, CTLL), 3 nM; in the experiment with Osteoclast-like (Mus musculus, Osteoclast-like), 17 nM; in the experiment with Lymphoma cell line it was 0.012 nM; in experiment [1], 0.1 nM.
Regarding `COC1=CC(=O)N(C(=O)[C@H](OC(=O)[C@@H]2CCCN2C(=O)[C@@H]2CCCN2C(=O)[C@H](C(C)C)N(C)C(=O)[C@@H](NC(=O)[C@H](C(C)C)N(C)C)C(C)C)C(C)C)[C@@H]1Cc1ccccc1`, the IC50 came out at 1.78 nM in the experiment with L1210 (Mus musculus, L1210); 700 nM in the experiment with Jurkat; 400 nM with CTLL (Mus musculus, CTLL); 120 nM with Osteoclast-like (Mus musculus, Osteoclast-like).
In the case of `COC1=CC(=O)N(C(=O)[C@H](OC(=O)[C@@H]2CCCN2C(=O)[C@@H]2CCCN2C(=O)[C@H](C(C)C)N(C)C(=O)[C@@H](NC(=O)[C@H](C(C)C)N(C)C)C(C)C)C(C)C)[C@H]1Cc1ccccc1` (stereo in doubt; form 2), the IC50 with L1210 (l1210) was 0.31 nM; with CTLL (ctll), 10 nM; in the experiment on Osteoclast-like (osteoclast-like), 50 nM.
